# Source: patent US20180207190A1, “COMPOSITION CONTAINING NAD FOR PREVENTING AND TREATING OBESITY OR IMPAIRED GLUCOSE TOLERANCE” (UNIVERSITY OF ULSAN FOUNDATION FOR INDUSTRY COOPERATION, priority 2015, published 2018)
# “Also recorded” adds a separate entry of the source.
# How the values were obtained:
# C57BL/6 mice [1] = assay: Feeding study, single intravascular (ICV, third ventricle cannula) administration: food intake and body weight; format: in vivo, mouse
# Description: (§1) Mature male C57BL/6 mice were purchased from ORIENT BIO Inc. (Gyeonggi-do, Republic of Korea). Unless stated otherwise, the mice were freely fed a standard diet (Cargill Agri Purina, Inc., Seoul, Republic of Korea). To establish a diet-induced obesity (DIO) model, the mice were fed a HFD (60% fats, Research Diet Co., New Brunswick, N.J.) for 20 weeks. The animals were raised at a controlled temperature (22±1° C.) under a 12-hour light/dark cycle (a light condition from 08:00 a.m. to 8:00 p.m.) For experiments of single administration of NAD+ and NMN, 8-week-old mice were fasted overnight, and NAD+(purchased from Sigma, administered at 0.3, 1 and 3 mg/kg) or NMN (purchased from Sigma, administered at 30, 100, and 300 mg/kg) was intraperitoneally administered to the mice between 09:00 a.m. and 10:00 a.m. For ? chronic NAD+ treatment, NAD+(0.3 mg/kg body weight/day) was intraperitoneally injected once to the mice immediately before the lights went off for 4 weeks.
# Permanent 26-gauge stainless steel cannulae were surgically inserted into the third ventricles of mice (a cannula insertion position: 1.8 mm posterior to bregma and 5.0 mm below the sagittal sinus). For surgery, the mice were anesthetized with a mixture of Zoletil and Rumpun (2:1 v/v, 10 μL/g body weight). The exact cannulation positions of the cannulae were confirmed through a positive dipsogenic response after angiotensin II (50 ng) was administered. Only the mice in which the cannulae were precisely positioned were used for data analyses. After a recovery period of 7 days after the surgery, the mice were daily touched for a predetermined time over a week to minimize a stress response to the experiments. Immediately before administration, NAD+ and NMN were dissolved in 0.9% saline and used. The NAD+ and NMN were dissolved in 2 μL of saline for intravascular administration.
# (§2) A predetermined dose of NAD+ or NMN was administered to C57BL/6 mice, which were fasted overnight, during an early light phase (09:00 to 11:00) by using a given method. The same amount of a vehicle (i.e., physiological saline) was administered to the control mice.
# C57BL/6 mice [2] = assay: Feeding study, single intraperitoneal administration: food intake; format: in vivo, mouse
# Description: as §1, §2
# HFD-fed obese mice [3] = assay: Chronic IP injection for 4 weeks: body weight and side effects in ND-fed and HFD-fed (diet-induced obesity) mice; format: in vivo, mouse; conditions: for body weight vs saline-injected group: NAD+ 0.3 mg/kg/day IP once a day for 4 weeks, 0.3 mg/kg/day
# Description: as §1
# Additionally, an effect of chronic IP injection of NAD+ on the body weight was also examined (FIG. 4). The mice were divided into four groups (a group of ND-fed mice to which saline was IP injected, a group of ND-fed mice to which NAD+ was IP injected, a group of HFD-fed mice to which saline was IP injected, and a group of HFD-fed mice to which NAD+ was IP injected), and NAD+ was intraperitoneally administered to the mice at a dose of 0.3 mg/kg/day once a day for 4 weeks.
# HFD-fed obese mice [4] = assay: Circadian rhythm of feed intake and physical activity (CLAMS) after chronic IP injection; format: in vivo, mouse; conditions: NAD+ 0.3 mg/kg/day IP 4 weeks, CLAMS 24 hours
# Description: as §1
# The feed intake and physical activity of mice were measured using a comprehensive laboratory animal monitoring system (CLAMS, Columbus Instruments) (n=4 to 5). The light and feeding conditions were maintained under the same conditions as in a home cage. Water was freely provided during an observation period.
# Further, an effect of chronic IP injection of NAD+ on the feed intake was verified as follows. To examine a chronic effect of the NAD+ intraperitoneal injection on the feed intake, NAD+(0.3 mg/kg) or saline was administered to the following three groups of mice once a day for 4 weeks: an IP saline-injected group of mice fed the ND, an IP saline-injected group of mice fed the HFD, and an IP NAD+-injected group of mice fed the HFD.
# To test an effect of habitual IP injection of NAD+(0.3 mg/kg/day) on mobility in an obese animal model, the mice were divided into three groups, that is, an IP saline-injected group of mice fed the ND, an IP saline-injected group of mice fed the HFD, and an IP NAD+-injected group of mice fed the HFD and the mobility thereof was evaluated.
# C57BL/6 mice [5] = assay: Oral glucose tolerance test; format: in vivo, mouse; conditions: NAD+ 0.3, 1, 3 mg/kg single IP 30 minutes before oral glucose 2 g/kg, overnight-fasted normal mice
# Description: For an oral glucose tolerance test, the mice were fasted overnight, 2 g/kg (body weight) of glucose was orally administered (by oral gavage), and blood glucose levels were measured immediately before oral administration (0 minute) and 15, 30, 60, and 120 minutes after the oral administration. 30 minutes prior to glucose administration, NAD+(0.3, 1 and 3 mg/kg) was intraperitoneally administered.
# To examine an effect of single IP injection of NAD+ on the glucose tolerance, an oral glucose tolerance test was performed on ND-fed C57BL/6 mice that were fasted overnight. A single IP dose of NAD+(0.3, 1 and 3 mg/kg) was administered to the mice, and glucose (2 g/kg) was orally administered thereto after 30 minutes. Thereafter, blood glucose levels were measured at 15, 30, 60, and 120 minutes.
# [6] = system: cultured neuronal cells, astrocytes, and cardiac myocytes; conditions: cells treated with NAD+; cited from earlier work
# rodents = conditions: exogenous NAD+ administration; cited from earlier work
# [7] = system: diabetic mice fed a high-fat diet; conditions: cited from earlier work
# [8] = NR supplementation; cited from earlier work
# NQO1 = NQO1 (Homo sapiens, UniProt P15559); conditions: cited from earlier work
# NQO1, sequence (P15559 whole entry, species assumed): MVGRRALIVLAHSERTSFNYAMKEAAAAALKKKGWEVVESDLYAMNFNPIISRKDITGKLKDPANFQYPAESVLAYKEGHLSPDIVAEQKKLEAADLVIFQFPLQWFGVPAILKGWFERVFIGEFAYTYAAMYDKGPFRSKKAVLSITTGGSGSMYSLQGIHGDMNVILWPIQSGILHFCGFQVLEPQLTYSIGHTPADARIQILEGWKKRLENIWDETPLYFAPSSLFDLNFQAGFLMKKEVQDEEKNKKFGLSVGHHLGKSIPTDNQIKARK
smiles,measurement,setting,value
"NC(=O)c1ccc[n+]([C@@H]2O[C@H](COP(=O)([O-])OP(=O)(O)OC[C@H]3O[C@@H](n4cnc5c(N)ncnc54)[C@H](O)[C@@H]3O)[C@@H](O)[C@H]2O)c1 [NAD+, nicotinamide adenine dinucleotide]",weight gain / body weight for 24 hours vs saline,C57BL/6 mice [1]; NAD+ 0.2 pmol single intracerebroventricular (ICV),significantly suppressed; also recorded: reduced the body weight; also recorded: significantly reduced level of weight gain
same,food intake vs saline,"C57BL/6 mice [1]; NAD+ 0.2, 1, 2 pmol single intracerebroventricular (ICV), overnight-fasted mice, observed for 24 hours, effect maintained at 24 hours",significantly reduced; also recorded: reduced food intake
same,time at which decrease in food intake started after administration,C57BL/6 mice [1]; NAD+ single intracerebroventricular (ICV),2 h
same,food intake at 4 hours vs saline,C57BL/6 mice [2]; NAD+ 1 mg/kg single IP,significantly reduced
same,food intake at 4 hours vs saline,"C57BL/6 mice [2]; NAD+ 0.3, 1, 3 mg/kg single IP, overnight-fasted mice",significantly reduced
same,body weight vs saline-injected group,HFD-fed obese mice [3]; HFD-fed obese mice,significantly reduced; also recorded: significant effect; also recorded: significant decrease
same,side effects of chronic injection,"HFD-fed obese mice [3]; NAD+ 0.3 mg/kg/day IP, 4 weeks",did not cause any notable side effects
same,body weight vs saline-injected group,HFD-fed obese mice [3]; ND-fed normal mice,did not induce a weight loss; also recorded: not significantly different
same,daytime feed intake,HFD-fed obese mice [4],significantly reduced
same,nighttime feed intake,HFD-fed obese mice [4],did not significantly reduce
same,food intake frequency,HFD-fed obese mice [4]; 0.3 mg/kg/day,suppressed a high food intake frequency of the obese mice to a normal mouse level; also recorded: significantly reduced
same,nighttime physical activity (mobility),HFD-fed obese mice [4]; 0.3 mg/kg/day,remarkably restored
same,blood glucose level at 15 and 30 minutes after glucose administration vs saline,C57BL/6 mice [5],significantly reduced; also recorded: much lower blood glucose level
same,apoptosis induced by oxidative stress,[6],reduced
same,ischemic brain damage and cardiomegaly,rodents,improves
"NC(=O)c1ccc[n+]([C@@H]2O[C@H](COP(=O)([O-])O)[C@@H](O)[C@H]2O)c1 [NMN, nicotinamide mononucleotide, reference compound]",food intake vs saline,"C57BL/6 mice [1]; NMN 10 pmol single ICV, 24 hours after injection",reduced; also recorded: much lower level of food intake
same,change in body weight for 24 hours vs control,"C57BL/6 mice [1]; NMN 10, 100, 1,000 pmol single ICV",no significant difference; also recorded: did not cause a change in body weight
same,food intake at 4 hours vs saline,C57BL/6 mice [2]; NMN 300 mg/kg single IP,significantly reduced level of food intake
same,food intake at 24 hours vs control,"C57BL/6 mice [2]; NMN 30, 100, 300 mg/kg single IP",did not have a reduced food intake; also recorded: not maintained; also recorded: no decrease in food intake
same,"NAD+ level in the liver, adipose tissues, and skeletal muscles","[7]; IP NMN, HFD-fed diabetic mice",successfully increases
same,glucose tolerance,"[7]; NMN, diabetic mice",restores damaged glucose tolerance
"NC(=O)c1ccc[n+]([C@@H]2O[C@H](CO)[C@@H](O)[C@H]2O)c1 [NR, nicotinamide riboside]",NAD+ level in peripheral tissues such as liver and skeletal muscles,[8],increases
same,NAD+ level in the brain,[8],does not increase
CC1(C)CCC2=C(O1)c1ccccc1C(=O)C2=O [βL],"NAD+, NAD+/NADH, and NADP+/NADPH ratios",NQO1,increase
